What was measured:
[1] = Inhibition of ulcer provoked by serotonin (Hashizume technique); format: in vivo, male Sprague-Dawley rats; settings: serotonin 60 mg/kg sub-cutaneous
Method: ULCER PROVOKED BY SEROTONIN The technique used is the one described by Hashizume, in Arch. Int. Pharmacodyn. 236, 96-108, (1978). The experiment is carried out on 3 batches of male Sprague-Dawley rats. Each batch includes 20 animals. The first batch constitutes the controls, the second is treated with Carbenoxolone, the third is treated with the product to be tested. The animals are made to fast 24 hours before the experiment. At t=0, the product to be tested is administered by the IP route to the third batch, 100 mg/kg of Carbenoxolone are administered per os to the second batch. At t=+10 mins., a sub-cutaneous injection is made of serotonin at 60 mg/kg in the three batches. At t=+250 mins., the animals are sacrificed. The stomachs are removed and spread out and the ulcers are marked as follows: small ulcer +=1 average ulcer ++=3 large ulcer +++=9 The results relative to the inhibition of the ulcers provoked by serotonin are given in Table IV hereinbelow with the doses of the products tested.

[2] = Toxicity, LD50 (DL50) I.P.; settings: in vivo, ip
From the text: The pharmacological tests carried out particularly with regard to toxicity, the ulcers provoked by aspirin and serotonin, and the anti-inflammatory and antalgic effects, are summarised hereinafter. The methods used are recalled hereinafter.
(§1) Table III hereinbelow deals with the LD50 and with the inhibition of the ulcers caused by aspirin, the inhibition of the oedema provoked by carragenine and cramping (the products to be tested being, in the latter two cases, administered by the IP route at a dose equal to one tenth of the LD50 IP).

[3] = Clinic: treatment of oedemas in man; format: in vivo
[4] = Inhibition of oedema provoked by carragenine (anti-inflammatory effect); format: in vivo; settings: IP, dose equal to one tenth of the LD50 IP
From the text: (§2) The techniques relative to the anti-inflammatory effects (oedema caused by carragenine) and antalgic effects (cramping) which were used are the conventional techniques described in the prior art.
as §1

[5] = Inhibition of ulcer provoked by aspirin; format: in vivo, male Wistar rats; settings: Rattus norvegicus; rats; 100 mg/kg IP at t=0 and again at t=18 h; aspirin 192 mg/kg per os; sacrificed at t=22 h; read-out: Aspirine induced ulcer % inhibition
Method: The experiment is carried out on male Wistar rats weighing 180 to 200 g.
At t=0 the rats are made to fast and a first administration of the product to be tested, at a dose of 100 mg/kg, is made IP. At t=18 hours, 2 ml of an ulcer-forming suspension with 192 mg of aspirin/kg are administered per os then a second IP administration of the product to be tested, at a dose of 100 mg/kg, is made.
At t=22 hours, the animals are sacrificed and the ulcers are marked as follows: small punctiform ulcers: mark 1 more extensive ulcers: mark 3 very extensive or very deep ulcers: mark 9
as §1

[6] = Inhibition of cramping (antalgic effect); format: in vivo; settings: IP, dose equal to one tenth of the LD50 IP
From the text: as §2, §1

[7] = Clinic: treatment of pain in man; format: in vivo
[8] = Clinic: treatment of ulcers in man; format: in vivo

Row | Compound | LD50 ([2]; I.P.) [mg/kg] | results in the treatment of oedemas [3] | Carragheenine oedema % inhibition [4] [%] | inhibition in vivo at 100 mg/kg [5] [%] | Cramping % inhibition [6] [%] | results in the treatment of ulcers [8] | also measured
1 | CC1(C)[C@@H](OC(=O)CCC(=O)O)CC[C@]2(C)[C@H]3C(=O)C=C4[C@@H]5C[C@@](C)(C(=O)O)CC[C@]5(C)CC[C@@]4(C)[C@]3(C)CC[C@@H]12 [Carbenoxolone, reference compound] | – | – | – | – | – | – | Serotonine ulcer % inhibition ([1]; Carbenoxolone 60 mg/kg IP as printed in table, method says 100 mg/kg per os): 64%
2 | O=C(O)c1cc2ccc3c(c2[nH]1)CCCO3 [Example 4, 7,8,9-trihydro-pyrano[2,3-g]indole-2-carboxylic acid] | 600 | excellent results | 35 | 11 | 36 | – | –
3 | O=C(O)c1cc2cc(Cl)c3c(c2[nH]1)CCCO3 [Example 5, 5-chloro-7,8,9-trihydro-pyrano[2,3-g]indole-2-carboxylic acid] | 300 | excellent results | 30 | 28 | 35 | – | –
4 | COc1cc2cc(C(=O)O)[nH]c2c2c1OCCC2 [Example 6, 5-methoxy-7,8,9-trihydro-pyrano[2,3-g]indole-2-carboxylic acid] | > 800 | – | – | 23 | 66 | – | results in the treatment of pain [7]: excellent results
5 | c1cc2ccc3c(c2[nH]1)CCCO3 [Example 7, 7,8,9-trihydro-pyrano[2,3-g]indole] | 750 | – | – | 46 | 14 | excellent results | Serotonine ulcer % inhibition ([1]; 75 mg/kg IP): 64%
6 | Clc1cc2cc[nH]c2c2c1OCCC2 [Example 8, 5-chloro-7,8,9-trihydro-pyrano[2,3-g]indole] | 900 | – | 33 | 42.5 | 26 | excellent results | Serotonine ulcer % inhibition ([1]; 45 mg/kg IP): 75%
7 | COc1cc2cc[nH]c2c2c1OCCC2 [Example 9, 5-methoxy-7,8,9-trihydro-pyrano[2,3-g]indole] | 650 | excellent results | 39 | 51 | 41 | – | –
8 | CN(C)Cc1c[nH]c2c3c(ccc12)OCCC3 [Example 14, 3-(7,8,9-trihydro-pyrano[2,3-g]indolyl)-N,N-dimethylmethylamine] | – | – | 22 | 47.5 | 67 | excellent results | LD50 [2]: 180 mg/kg
9 | COc1cc2cc(C(=O)O)[nH]c2c2c1OCCC2=O [Example 19, 5-methoxy-9-oxo-7,8-dihydro-pyrano[2,3-g]indole-2-carboxylic acid] | > 1000 | – | – | 49 | – | excellent results | –
10 | COc1cc2cc[nH]c2c2c1OCCC2=O [Example 21, 5-methoxy-9-oxo-7,8-dihydro-pyrano[2,3-g]indole] | 600 | – | 49 | 60 | 37 | excellent results | Serotonine ulcer % inhibition ([1]; 60 mg/kg IP): 87%
11 | COc1cc2cc[nH]c2c2c1OCCC2=NO [Example 23] | – | – | 52 | 40 | 51 | excellent results | Serotonine ulcer % inhibition ([1]; 92 mg/kg IP): 52%; DLo [2]: > 800 mg/kg
12 | COc1cc2cc[nH]c2c2c1OCCC2O (stereo not shown) [Example 24] | 1000 | excellent results | 40 | – | 60 | – | –
